Among the data in patent publication US11130741B2 (Bioimics AB, priority 2016, dated 2021) are MIC values, retold here.

The test system of assay [1] is Staphylococcus aureus subsp. aureus (ATCC29213). The experiment in a line: MIC, broth microdilution (CLSI), Staphylococcus aureus subsp. aureus ATCC29213. As to conditions: ATCC29213, Table 15, read-out: S. aureus ("wound") (MIC). It counts as cell-based. (In general: Broth dilution looks for growth in wells or tubes with falling amounts of substance.)
Assay [2] deals with Escherichia coli (ATCC25922). The assay is described as follows: MIC, broth microdilution (CLSI), Escherichia coli ATCC25922.
Procedure: Initial minimal inhibitory concentration (MIC) tests were made on two bacterial strains: • Escherichia coli (ATCC25922) • Staphylococcus aureus (ATCC25923).
Minimal Inhibitory Concentration (MIC)
MIC values were determined using the standard broth microdilution procedure based on the guidelines by the Clinical and Laboratory Standards Institute (CLSI). Briefly, the compounds were dissolved in DMSO to 10 mM. They were diluted in cation-adjusted Mueller-Hinton broth (CAMHB) to four times the highest concentration tested. A serial 2-fold dilution in CAMHB was done in microdilution plates. The inoculum of bacterial strain to be tested was prepared by making a suspension of colonies from an 18 to 24 hours old plate in CAMHB. The inoculum was diluted so that, after inoculation, each well contained approximately 5×10^5 CFU/mL. To a volume of 50 μl compound in CAMHB an equal volume of inoculum was added. The tray was sealed in a plastic bag and incubated at 35° C. for 16 to 20 hours. To aid in the detection of growth the dye resazurin was added to a final concentration 0.001% and incubated at room temperature for 1 h. Reduction of resazurin, and therefore bacterial growth, was seen as a change from blue to pink.
[3] abbreviates: ATCC25922, read-out: E. coli MIC, Table 15, NI = No inhibition.
The mark [4] stands for this setting: ATCC25922, read-out: E. coli MIC.

A word on the MIC: it is the smallest concentration in the dilution series that meets the test's criterion for growth inhibition.

Converted amounts (≈) assume the structure as drawn. Like-named read-outs stand apart in the source and are kept apart here.

Consider `Cl.NC1CCCC(CNc2cc(C(F)(F)F)cc3c2Nc2ccc(Br)cc2S3)C1` (stereo not drawn) [compound 343, N-((3-aminocyclohexyl)methyl)-7-bromo-3-(trifluoromethyl)-10H-phenothiazin-1-amine hydrochloride], for which the results for the minimal inhibitory concentration (MIC) in assay [1] and in assay [2] (setting [3]) were 16 µg/mL and 64 µg/mL, respectively.
On the same counts, the results for `Cl.NCCNCCCNc1cc(C(F)(F)F)cc2c1Nc1ccc(N3CC4(CCC4)C3)cc1S2` [compound 347, N1-(7-(2-azaspiro[3.3]heptan-2-yl)-3-(trifluoromethyl)-10H-phenothiazin-1-yl)-N3-(2-aminoethyl) propane-1,3-diamine hydrochloride] are 4 µg/mL and 8 µg/mL.
As for `CCOC(=O)c1ccc2c(c1)Sc1cc(N3CCN(CCN)CC3)ccc1N2CCCN` [compound 271, ethyl 7-(4-(2-aminoethyl)piperazin-1-yl)-10-(3-aminopropyl)-10H-phenothiazine-3-carboxylate trifluoro acetic acid], the results for the MIC in assay [1] and in assay [2] (setting [4]) were 128 µg/mL (≈ 281 µM) and > 128 µg/mL, respectively.
On to `FC(F)(F)c1cc(NC2CCNCC2)c2c(c1)Sc1cccnc1N2` [compound 264, N-(piperidin-4-yl)-7-(trifluoromethyl)-10H-benzo[b] pyrido[2,3-e] [1,4]thiazin-9-amine], for which the MIC in assay [1] was 8 µg/mL (≈ 21.8 µM); in assay [2] (setting [3]), 16 µg/mL (≈ 43.7 µM).
The like results for `FC(F)(F)c1cc(NC2CC3CCC(C2)N3)c2c(c1)Sc1ccccc1N2` (stereo not drawn) [compound 290, N-(8-azabicyclo[3.2.1]octan-3-yl)-3-(trifluoromethyl)-10H-phenothiazin-1-amine] were, in that order, 8 µg/mL (≈ 20.4 µM) and 32 µg/mL (≈ 81.7 µM).
On the same counts, the results for `NC1CCCC(C(=O)Nc2cc(C(F)(F)F)cc3c2Nc2ccc(N4CCNCC4)cc2S3)C1` (stereo not drawn) [compound 256, 3-amino-N-(7-(piperazin-1-yl)-3-(trifluoromethyl)-10H-phenothiazin-1-yl)cyclohexane-1-carboxamide] are 16 µg/mL (≈ 32.5 µM) and 32 µg/mL (≈ 65.1 µM).
The like results for `FC(F)(F)c1cc(NC2CCNCC2)c2c(c1)SC1CCCCC1N2` (stereo not drawn) [compound 259, N-(piperidin-4-yl)-7-(trifluoromethyl)-2,3,4,4a,10,10a-hexahydro-1H-phenothiazin-9-amine] were, in that order, 16 µg/mL (≈ 43.1 µM) and 64 µg/mL (≈ 172 µM).
For the compound `Cl.NCCN1CCC(Nc2cc(C(F)(F)F)cc3c2Nc2ccc(C4=CCCC4)cc2S3)CC1` [compound 359, N-(1-(2-aminoethyl)piperidin-4-yl)-7-(cyclopent-1-en-1-yl)-3-(trifluoromethyl)-10H-phenothiazin-1-amine hydrochloride], the MIC in assay [1] turned out to be 16 µg/mL; in assay [2] (setting [3]) it was 64 µg/mL.
With `Cl.FC(F)(F)c1cc(NC2CCN(CCN3CCNCC3)CC2)c2c(c1)Sc1cc(N3CCCC3)ccc1N2` [compound 330, N-(1-(2-(piperazin-1-yl)ethyl)piperidin-4-yl)-7-(pyrrolidin-1-yl)-3-(trifluoromethyl)-10H-phenothiazin-1-amine hydrochloride], the results for the minimum inhibitory concentration (MIC) in assay [1] and in assay [2] (setting [4]) were 128 µg/mL and > 128 µg/mL, respectively.
Consider `Cl.Cl.N#Cc1ccc2c(c1)Sc1cc(C(F)(F)F)cc(NC(=O)CCNCCN)c1N2` [compound 304, 3-((2-aminoethyl)amino)-N-(7-cyano-3-(trifluoromethyl)-10H-phenothiazin-1-yl)propanamide hydrochloride], for which the MIC amounted to 16 µg/mL in assay [1] and 32 µg/mL in assay [2] (setting [3]).
As to `CCN(C)c1ccc2c(c1)Sc1cc(C(F)(F)F)cc(NC3CCN(CCN)CC3)c1N2.Cl.Cl` [compound 339, N1-(1-(2-aminoethyl)piperidin-4-yl)-N7-ethyl-N7-methyl-3-(trifluoromethyl)-10H-phenothiazine-1,7-diamine hydrochloride], the MIC was 4 µg/mL in assay [1] and 8 µg/mL in assay [2] (setting [3]).
With `Cl.Cl.NCCN1CCC(Nc2cc(C(N)=O)cc3c2Nc2ccccc2S3)CC1` [compound 287, 1-((1-(2-aminoethyl)piperidin-4-yl)amino)-10H-phenothiazine-3-carboxamide hydrochloride], the figures for the MIC in assay [1] and in assay [2] (setting [4]) were 128 µg/mL and > 128 µg/mL, respectively.
